Values joined by “and” are separate entries in the source; they are usually repeats but may differ in a detail not shown here. Equal values may be shown once. Read-outs that look alike come from different tables or passages of the source.
Biological target: T1, DmOctα1B receptor (Drosophila melanogaster, UniProt Q7JQF1)
T1 construct: expressed in transfected cells
T1 sequence (Q7JQF1 1-645): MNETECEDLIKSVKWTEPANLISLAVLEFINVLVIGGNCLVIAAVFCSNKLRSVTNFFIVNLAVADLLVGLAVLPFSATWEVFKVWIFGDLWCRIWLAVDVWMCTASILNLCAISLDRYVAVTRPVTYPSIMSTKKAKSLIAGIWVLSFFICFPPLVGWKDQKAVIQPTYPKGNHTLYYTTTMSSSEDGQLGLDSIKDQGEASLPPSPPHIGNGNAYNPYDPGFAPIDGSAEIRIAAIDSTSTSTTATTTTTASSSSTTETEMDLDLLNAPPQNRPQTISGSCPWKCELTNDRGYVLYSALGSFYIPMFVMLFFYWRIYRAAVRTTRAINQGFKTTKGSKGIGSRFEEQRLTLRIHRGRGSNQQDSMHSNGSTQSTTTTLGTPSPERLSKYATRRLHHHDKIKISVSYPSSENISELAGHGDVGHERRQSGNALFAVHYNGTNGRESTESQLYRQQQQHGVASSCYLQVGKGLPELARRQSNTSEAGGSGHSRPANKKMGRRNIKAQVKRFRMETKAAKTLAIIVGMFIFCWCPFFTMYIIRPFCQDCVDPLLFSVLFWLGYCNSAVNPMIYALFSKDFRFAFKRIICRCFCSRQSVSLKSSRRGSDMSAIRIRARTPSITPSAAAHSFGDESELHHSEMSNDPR
Assay: Ca2+ fluorimetry in plate reader (96 MWP), DmOctα1B-expressing HEK293 cells
Assay type: cell-based
Experimental: Both the DmOctα1B receptor- and DmOctβ1 receptor-expressing (=flpTM-DmOctβ1) cell lines were initially investigated via Ca^2+ fluorimetric measurements in a plate reader. The cells were seeded in 96 well plates and loaded with Fluo-4, enabling the detection of changes in [Ca^2+]i. The Fluo-4 was excited at 485 nm and the fluorescence emission was recorded at 510 nm. To overcome the cAMP degradation by cell-endogenous phosphodiesterases, the DmOctβ1-expressing cells were treated with 100 µM iso-butylmethylxanthine (IBMX). Prior to the ligand application, the basal fluorescence (F0) was recorded and the concentration–response curves were generated by plotting the changes in fluorescence ((Fmax − F0)/F0 = ΔF/F0) against the ligand concentrations. For a better comparison, the fluorescence intensities were normalized. The maximal change in fluorescence for each of the stimulation series was defined as 100%. The EC50 values were determined from a nonlinear regression plot (four parameters) using GraphPad Prism v5.04 for analysis and display.
In order to omit loading with the fluorescent dye, both the DmOctα1B-expressing cells and flpTM-DmOctβ1 cells were stably transfected with a construct encoding the cytosolic version of GCaMP3.0. As in the previous experiment with Fluo-4, the GCaMP3.0-expressing cell lines were seeded in 96 well plates and incubated with the same series of increasing octopamine concentrations. The GCaMP3.0 was excited at 485 nm and the fluorescence emission was recorded at 510 nm. The basal fluorescence (F0) was recorded before adding the octopamine concentration series. The fluorescence intensities were normalized to the maximal change in fluorescence, defined as 100%. The concentration–response curves were generated with GraphPad Prism v5.04. In Figure 1, the concentration–response curves obtained with Fluo-4 and GCaMP3.0 are depicted for both of the receptors. […]

EC50 (DmOctα1B cells loaded with Fluo-4, 96 MWP plate reader, read-out: EC50): ~12 nM and 12 nM | EC50 (DmOctα1B-GCaMP3.0 cells, 96 MWP plate reader, read-out: EC50): 14 nM | EC50 (DmOctα1B-GCaMP3.0 cells, 96 MWP, given as logEC50 (negative), read-out: logEC50 ± SD (converted)): 15.8 nM
Compound: NCC(O)c1ccc(O)cc1 (stereo not drawn) [octopamine]

From article PMC9369311, “Examination of Intracellular GPCR-Mediated Signaling with High Temporal Resolution” (International Journal of Molecular Sciences, 2022)
